The results in this text go back to patent US11911406B2, “PH-responsive polymer-drug conjugates for enhanced antibacterial efficacy” (priority 2020, dated 2024).

Series [1] deals with broad spectrum of microbes. The series can be described thus: MIC, broth microdilution, across the strains tested. It counts as cell-based. The settings on record: E. coli, MRSA, P. aeruginosa (FIGS. 3G-I). On the procedure: (§1) Bacterial strains. S. aureus Newman was kindly provided by Prof Douglas Weibel; E. coli ATCC25922, S. aureus ATCC 33591 and P. aeruginosa ATCC 27853 were kindly donated by Prof. David Andes. E. coli DH5a was purchased from Thermo Fisher. The bacteria above were grown in Mueller Hinton Broth (MHB) media (Criterion, Santa Maria, Calif., USA). M. smegmatis mc^2155 strain was kindly donated by Prof. Adel M. Talaat, and was grown in Middlebrook 7H9 broth (HiMedia, West Chester, Pa., USA).
Minimal inhibitory concentration (MIC) measurements. The MIC of the different treatments on various bacteria strains was determined using the broth microdilution method. Briefly, 100 μL of the respective broth media containing serial twofold dilutions of each compound was placed into a 96-well tissue culture plate. Each bacterial strain was taken from an exponentially growing culture and diluted to 5×10^6 CFU/mL. 10 μL of such microbial suspension was inoculated in each well of the plate, resulting in a final bacteria concentration of approximately 5×10^5 CFU/mL. The bacteria were cultured at 37° C. for 24 h and their growth were observed by reading the optical density (OD) at 600 nm. The MIC was determined as the treatment concentration at which no microbial growth was observed. […]
(In general: In broth dilution the organism is exposed to a series of concentrations in liquid medium.)

For series [2], the system named is HEK 293 human embryonic kidney cells. The series can be described thus: Cell viability test (MTT cytotoxicity). In kind it is cell-based. The settings on record: 48 h, no pH given. On the procedure: Cell viability test. Cytotoxicity of different components was tested through MTT assays. HEK 293 human embryonic kidney cells were seeded onto a 96-well plate (1×10^4 cells/well) and cultured overnight. The cells were then treated with various polymers or PDCs with serial dilutions for 48 h and their viability was measured by a standard MTT assay. Data were collected by monitoring the difference between the absorbance at 560 nm and 650 nm using a GloMax-Multi Microplate Multimode Reader (Promega, Wis., USA).

The test system of series [3] is M. smegmatis (MC^2 155). The series is described as follows: MIC, broth microdilution. It counts as cell-based. The conditions noted are these: 24 h, no pH given. As for the experimental part:
as §1
(§2) Minimal inhibitory concentration (MIC) measurements. The MIC of the different treatments on various bacteria strains was determined using the broth microdilution method. Briefly, 100 μL of the respective broth media containing serial twofold dilutions of each compound was placed into a 96-well tissue culture plate. Each bacterial strain was taken from an exponentially growing culture and diluted to 5×10^6 CFU/mL. 10 μL of such microbial suspension was inoculated in each well of the plate, resulting in a final bacteria concentration of approximately 5×10^5 CFU/mL. The bacteria were cultured at 37° C. for 24 h and their growth were observed by reading the optical density (OD) at 600 nm. The MIC was determined as the treatment concentration at which no microbial growth was observed. Broth containing microbial cells alone was used as a positive control and broth without bacteria inoculation was used as a negative control. Each test was carried out in 3 replicates.

Series [4] deals with P. aeruginosa (ATCC 27853). The series can be described thus: MIC, broth microdilution. It counts as cell-based. The settings on record: 24 h, no pH given. As for the experimental part: as §1, §2
Series [5] deals with E. coli (DH5 alpha). The series is described as follows: MIC, broth microdilution. The conditions noted are these: 24 h, no pH given. In kind it is cell-based. On the procedure: as §1, §2
Series [6] concerns E. coli (ATCC 25922). The series is described as follows: MIC, broth microdilution. It counts as cell-based. The conditions noted are these: 24 h, no pH given. On the procedure:
as §1, §2

The subject of series [7] is S. aureus (Newman). The series can be described thus: MIC, broth microdilution. The conditions noted are these: 24 h, no pH given. In kind it is cell-based. On the procedure: as §1, §2
For series [8], the system named is S. aureus (MRSA ATCC33591). The series can be described thus: MIC, broth microdilution. In kind it is cell-based. The conditions noted are these: 24 h, no pH given. On the procedure:
as §1, §2

For series [9], the system named is human red blood cells. The series is described as follows: Hemolysis assay. It counts as cell-based. On the procedure:
Hemolysis assay. […] The antibacterial polymer and PDC with different charges were serial diluted with PBS and placed in 96-well plates (100 μL/well). The blood cell suspension (10 μL/well) was added into the wells and incubated at 37° C. for 1 h to allow the complete hemolysis process. […] Following centrifugation at 3000 rpm for 7 min, the supernatant (70 μL/well) was transferred to another clean 96-well plate. OD 560 in each well was monitored by a microplate reader, and hemolysis was calculated using the following formula: […]

Series [10] deals with P. aeruginosa in Raw 264.7 macrophage. The series can be described thus: Antibacterial activity for intracellular infection. It counts as cell-based. The settings on record: Raw 264.7 infected with P. aeruginosa, pH 7.4 and 6.0, 1 day. On the procedure:
Antibacterial activity for intracellular infection. The antibacterial activity for intracellular infection was tested following the previous report. Briefly, macrophage Raw 264.7 cells were seeded in 96-well plate at a density of 1×10^4 cell/swell overnight and infected with MRSA or P. aeruginosa at a ratio of 10-20 bacteria per macrophage in FBS free RPMI 1640 medium. After 3 h incubation, the cells were washed and cultured in 1640 medium containing 10% FBS and 50 μg/mL gentamycin for one day to prevent the growth of extracellular bacteria. Then the macrophages were treated with free streptomycin or PDC for another day and lysed with Milli-Q water supplemented with 0.1% Triton-X. The cell lysates were serially diluted and the CFU in each well was determined by plating on MHB agar plates.

Series [11] has as its system E. coli ATCC 25922. The series can be described thus: Live/Dead bacterial staining assay (AO/EB). In kind it is cell-based. The conditions noted are these: 0.5 h and 3 h. On the procedure:
Live/Dead bacterial staining assay. Exponentially growing bacteria (E. coli ATCC 25922) were collected by centrifugation at 8000 rpm for 5 min, washed with saline and diluted to OD 600 value of 0.5. The bacterial suspensions were incubated with different treatments at 37° C. for 0.5 h and 3 h, and then washed with saline and stained by acridine orange (10 μg/mL) and ethidium bromide (EB, […]) solution for 15 min. Afterward, the bacteria were collected via centrifugation, washed with saline for 2 times, resuspended in 70% glycerol and spread on glass slides. The live/dead bacteria were observed by a confocal laser scanning microscope (CLSM).

Series [12] deals with E. coli biofilm. The series can be described thus: Biofilm inhibition assay (crystal violet). The settings on record: 512 μg/mL free streptomycin, 24 h. It counts as cell-based. As for the experimental part:
(§3) Biofilm inhibition assays. Exponentially growing bacteria were inoculated into 96 well plates (1×10^4 cell/well) containing MHB broth with 2% (v/w) glucose, incubated under stationary conditions at 37° C. for one day. After biofilm formation, the media was discarded and the plates were washed with PBS to remove the planktonic bacteria. Fresh NMB broth containing serially diluted free streptomycin or PDC were added to the plates and incubated at 37° C. for another 24 h. The media in each well was then removed, and the plates were washed carefully with PBS for 1 time. The biofilm in each well was fixed with 95% ethanol for 15 min and stained with 0.1% crystal violet for 15 min. After washing with Milli-Q water for three times, 33% v/v acetic acid (100 μL/well) was added to solubilize the crystal violet staining. OD 560 in each well was read to determine the biofilm formation. The biofilm formed as described above was also stained with acridine orange and Cy5 labeled PDC, and monitored by CLSM to observe the PDC penetration.

The test system of series [13] is P. aeruginosa biofilm. The series is described as follows: Biofilm inhibition assay (crystal violet). It counts as cell-based. The conditions noted are these: 256 μg/mL streptomycin. As for the experimental part:
as §3

Series [14] relates to P. aeruginosa ATCC 27853. The series can be described thus: Mouse lung infection model. In kind it is in vivo, ICR mice. The settings on record: 2 i.v. injections (1 h and 8 h after the infection). On the procedure: Mouse lung infection model. […] In another experiment of monitoring the mice survival for the lung infection model, the P. aeruginosa infected mice were given 2 treatments (1 h and 8 h after the infection) and their survival was observed using Kaplan-Meier curves (n=5).

Series [15] relates to E. coli ATCC 25922. The series is described as follows: Evaluation of antibiotic resistance development (serial passaging). In kind it is cell-based. The conditions noted are these: sub-lethal dose (0.5 MIC). As for the experimental part:
Evaluation of antibiotic resistance development. E. coli ATCC 25922 was employed to study the drug resistance development under sublethal dose treatments of free streptomycin, cationic polymer or the PDC. During a serial of passages, the MIC of each treatment was measured by the broth microdilution method as described above, and the bacteria were exposed to ½MIC at that particular passage. MIC for each passage was recorded and normalized to that of the first passage to determine the drug resistance enhancement.

In series [16] the test system is MRSA biofilm. The series is described as follows: Biofilm inhibition assay (crystal violet). The settings on record: 512 μg/mL free streptomycin, 24 h. In kind it is cell-based, S. aureus. On the procedure:
as §3

Values after ≈ are worked out from the molar mass of the structure shown. Where only a bound is given, the exact number is not on record here.

On to “Hex-Cys-Cys-DET-strep [Positively-charged PDC]”, for which the “effect of pH (6.0 vs 7.4) on MIC, in words” value in series [1] is given as “MICs were unaffected by pH variation”. Moreover, the “HEK293 IC50” value in series [2] is over 2000 µg/mL. The “MIC M. smegmatis (MC^2 155)” value in [3] came out at 1.25 µg/mL. Further, the “MIC P. aeruginosa (ATCC 27853)” value in series [4] worked out at 20 µg/mL. Besides, in series [5], the “MIC E. coli (DH5 alpha)” value turned out to be 20 µg/mL. In series [6], the “MIC E. coli (ATCC 25922)” value stood at 20 µg/mL. Besides, in [7], the “MIC S. aureus (Newman)” value turned out to be 10 µg/mL. Also, the “MIC S. aureus (MRSA ATCC33591)” value in series [8] stood at 20 µg/mL.

Regarding “Hex-Cys-Cys-DET-DMA [Neutralized polymer]”, the “hemolytic activity, in words” value in series [9] was “did not show any hemolytic activity”.

As a reminder, the MIC is the lowest concentration found to suppress growth. Consider `[H]/N=C(/N)N[C@H]1[C@H](O)[C@@H](O)[C@H](O[C@@H]2O[C@@H](C)[C@](O)(C=O)[C@H]2O[C@@H]2O[C@@H](CO)[C@H](O)[C@@H](O)[C@@H]2NC)[C@@H](N/C(N)=N\[H])[C@@H]1O` [Streptomycin, streptomycin, reference compound], for which the “antibacterial efficacy on intracellular bacteria (CFU), in words” value in [10] is recorded as “did not show much therapeutic efficacy”. Moreover, the “bactericidal effect / EB staining, in words” value in [11] is “little EB infiltration at 3 h”. The biofilm remaining result in [12] and in series [16] was “more than 50%” each time. The “biofilm reduced / removed” value in [13] was 75%. Besides, the MIC in series [3] (Mycolicibacterium smegmatis, MC^2155) came out at 0.5 µg/mL (≈ 0.86 µM); in series [4] (Pseudomonas aeruginosa, ATCC27853), 16 µg/mL (≈ 27.5 µM); in series [5] (Escherichia coli), 8 µg/mL (≈ 13.8 µM); in series [6] (Escherichia coli, ATCC25922), 8 µg/mL (≈ 13.8 µM); in [7] (Staphylococcus aureus, NEWMAN), 16 µg/mL (≈ 27.5 µM); in series [8] (Staphylococcus aureus), 16 µg/mL (≈ 27.5 µM). For the same compound, the “mice rescued (survival)” value in series [14] is recorded as 40%. Further, the “increase in MIC after 20 passages” value in [15] is 10 fold.

For the compound “Hex-Cys-Cys-DET2 polymer [Positively-charged polymer]”, the “hemolytic activity, in words” value in series [9] is listed as “only induced hemolysis at a high level of 10 mg/mL”.
